Results from patent publication US20110071150A1 (priority 2009, published 2011).

tested on: Jurkat IL-2 Production; assay: Jurkat IL-2 Production Assay; assay type: cell-based; conditions: Homo sapiens, Jurkat cell (ATCC), 18-20 h incubation, PHA 5 μg/mL with 1% FBS, or PMA/Ionomycin with 30% FBS (table does not say which)
Procedure: Jurkat IL-2 Production Assay
Cell: Jurkat cell (ATCC) was grown in RPMI 1640 with 10% FBS and 1% penicillin/streptomycin. The cell density was kept at 1.2-1.8×10^6/mL in culture flask before seeding into culture plate, and the cell density in the plate was 0.5×10^6/[…]/well.
Culture media: RPMI 1640 with 1% FBS or 30% FBS for high serum assay.
Test compound: serial dilution was done in 100% DMSO, and intermediate dilution was done with RPMI 1640 medium with 1% FBS. The DMSO final concentration in culture well was 0.25%.
Stimulant: PHA (Sigma#L9017-10MG) was used for the assay with 1% FBS in culture medium, and added after 10 minutes exposure of cell to compound/DMSO. The PHA final concentration in culture well was 5 μg/mL. PMA (Sigma# P-8139 5MG)/Ionomycin (Sigma# 10634-5MG) was used for the assay with 30% FBS in culture medium, and added at same time point as the 1% FBS culture assay. The final concentration of PMA was 50 ng/mL, and Ionomycin final concentration was 500 ng/mL.
Incubation: at 37° C. with 5% CO2 and 95% humidity for 18 h˜20 h.
IC50: IC50 was calculated with the data analysis software XLfit4, General Pharmacology model 251.

IC50 [nM] | SMILES
741 | Cn1nc(C(F)(F)F)cc1-c1ccc2[nH]c(-c3cc(Cl)ccc3F)cc2c1 [Example 33, 2-(5-Chloro-2-fluoro-phenyl)-5-(2-methyl-5-trifluoromethyl-2H-pyrazol-3-yl)-1H-indole]
184 | Cn1nc(C(F)(F)F)cc1-c1ccc2[nH]c(-c3ccc(Cl)cc3Cl)cc2c1 [Example 34, 2-(2,4-Dichloro-phenyl)-5-(2-methyl-5-trifluoromethyl-2H-pyrazol-3-yl)-1H-indole]
116 | Cn1nc(C(F)(F)F)cc1-c1ccc2[nH]c(-c3ccc(F)cc3Cl)cc2c1 [Example 35, 2-(2-Chloro-4-fluoro-phenyl)-5-(2-methyl-5-trifluoromethyl-2H-pyrazol-3-yl)-1H-indole]
131 | Cn1nc(C(F)(F)F)cc1-c1ccc2[nH]c(-c3ccncc3Cl)cc2c1 [Example 36, 2-(3-Chloro-pyridin-4-yl)-5-(2-methyl-5-trifluoromethyl-2H-pyrazol-3-yl)-1H-indole]
120 | Cc1cnccc1-c1cc2cc(-c3cc(C(F)(F)F)nn3C)ccc2[nH]1 [Example 37, 2-(3-Methyl-pyridin-4-yl)-5-(2-methyl-5-trifluoromethyl-2H-pyrazol-3-yl)-1H-indole]
83 | COc1ccc(-c2cc3cc(-c4cc(C(F)(F)F)nn4C)ccc3[nH]2)c(C)n1 [Example 38, 2-(6-Methoxy-2-methyl-pyridin-3-yl)-5-(2-methyl-5-trifluoromethyl-2H-pyrazol-3-yl)-1H-indole]
148 | COC(=O)c1ccc(-c2cc3cc(-c4cc(C(F)(F)F)nn4C)ccc3[nH]2)c(C)c1 [Example 39, 3-Methyl-4-[5-(2-methyl-5-trifluoromethyl-2H-pyrazol-3-yl)-1H-indol-2-yl]-benzoic acid methyl ester]
728 | Cc1cc(C(=O)O)ccc1-c1cc2cc(-c3cc(C(F)(F)F)nn3C)ccc2[nH]1 [Example 40]
486 | Cn1nc(C(F)(F)F)cc1-c1ccc2[nH]c(-c3cccc(Cl)c3Cl)cc2c1 [Example 41, 2-(2,3-Dichloro-phenyl)-5-(2-methyl-5-trifluoromethyl-2H-pyrazol-3-yl)-1H-indole]
204 | Cn1nc(C(F)(F)F)cc1-c1ccc2[nH]c(-c3cc(F)ccc3Cl)cc2c1 [Example 42, 2-(2-Chloro-5-fluoro-phenyl)-5-(2-methyl-5-trifluoromethyl-2H-pyrazol-3-yl)-1H-indole]
87 | COc1nccc(-c2cc3cc(-c4cc(C(F)(F)F)nn4C)ccc3[nH]2)c1Cl [Example 43, 2-(3-Chloro-2-methoxy-pyridin-4-yl)-5-(2-methyl-5-trifluoromethyl-2H-pyrazol-3-yl)-1H-indole]
169 | Cn1nc(C(F)(F)F)cc1-c1ccc2[nH]c(-c3ccncc3F)cc2c1 [Example 44, 2-(3-Fluoro-pyridin-4-yl)-5-(2-methyl-5-trifluoromethyl-2H-pyrazol-3-yl)-1H-indole]
375 | Cc1noc(C)c1-c1cc2cc(-c3cc(C(F)(F)F)nn3C)ccc2[nH]1 [Example 45, 2-(3,5-Dimethyl-isoxazol-4-yl)-5-(2-methyl-5-trifluoromethyl-2H-pyrazol-3-yl)-1H-indole]
44 | CCn1nc(C(F)(F)F)cc1-c1ccc2[nH]c(-c3c(F)cccc3F)cc2c1 [Example 46, 2-(2,6-Difluoro-phenyl)-5-(2-ethyl-5-trifluoromethyl-2H-pyrazol-3-yl)-1H-indole]
40 | CCn1nc(C(F)(F)F)cc1-c1ccc2[nH]c(-c3c(F)cccc3Cl)cc2c1 [Example 47, 2-(2-Chloro-6-fluoro-phenyl)-5-(2-ethyl-5-trifluoromethyl-2H-pyrazol-3-yl)-1H-indole]
12 | Cn1nc(C(F)(F)F)cc1-c1ccc2[nH]c(-c3c(F)cccc3Cl)cc2c1 [Example 48, 2-(2-Chloro-6-fluoro-phenyl)-5-(2-methyl-5-trifluoromethyl-2H-pyrazol-3-yl)-1H-indole]
13 | CCn1nc(-c2cccnc2)cc1-c1ccc2[nH]c(-c3c(F)cccc3Cl)cc2c1 [Example 49, 2-(2-Chloro-6-fluoro-phenyl)-5-(2-ethyl-5-pyridin-3-yl-2H-pyrazol-3-yl)-1H-indole]
13 | Cc1sc(-c2cccnc2)nc1-c1ccc2[nH]c(-c3c(F)cccc3Cl)cc2c1 [Example 50, 2-(2-Chloro-6-fluoro-phenyl)-5-(5-methyl-2-pyridin-3-yl-thiazol-4-yl)-1H-indole]
524 | Cn1nc(-c2ccncc2)cc1-c1ccc2[nH]c(-c3c(F)cccc3Cl)cc2c1 [Example 51, 2-(2-Chloro-6-fluoro-phenyl)-5-(2-methyl-5-pyridin-4-yl-2H-pyrazol-3-yl)-1H-indole]
62 | Cc1cc(-c2ncco2)ccc1-c1ccc2[nH]c(-c3c(F)cccc3Cl)cc2c1 [Example 52, 2-(2-Chloro-6-fluoro-phenyl)-5-(2-methyl-4-oxazol-2-yl-phenyl)-1H-indole]

IC50 [nM] | SMILES
14 | COC(=O)c1ccc(-c2ccc3[nH]c(-c4c(F)cccc4Cl)cc3c2)c(C)c1 [Example 53, 4-[2-(2-Chloro-6-fluoro-phenyl)-1H-indol-5-yl]-3-methyl-benzoic acid methyl ester]
33 | COc1ccc(-c2ccc3[nH]c(-c4c(F)cccc4Cl)cc3c2)c(OC)c1 [Example 54, 2-(2-chloro-6-fluoro-phenyl)-5-(2,4-dimethoxy-phenyl)-1H-indole]
79 | Fc1cccc(Cl)c1-c1cc2cc(-c3ccc(C(F)(F)F)cc3C(F)(F)F)ccc2[nH]1 [Example 55, 5-(2,4-Bis-trifluoromethyl-phenyl)-2-(2-chloro-6-fluoro-phenyl)-1H-indole]
132 | Fc1cccc(Cl)c1-c1cc2cc(-c3ccc(C(F)(F)F)cc3Cl)ccc2[nH]1 [Example 56, 2-(2-Chloro-6-fluoro-phenyl)-5-(2-chloro-4-trifluoromethyl-phenyl)-1H-indole]
301 | Cc1sc(-c2ccccn2)nc1-c1ccc2[nH]c(-c3ccc(F)cc3Cl)cc2c1 [Example 57, 2-(2-Chloro-4-fluoro-phenyl)-5-(5-methyl-2-pyridin-2-yl-thiazol-4-yl)-1H-indole]
689 | Cc1sc(-c2ccccn2)nc1-c1ccc2[nH]c(-c3cc(F)ccc3Cl)cc2c1 [Example 58, 2-(2-Chloro-5-fluoro-phenyl)-5-(5-methyl-2-pyridin-2-yl-thiazol-4-yl)-1H-indole]
105 | Cn1nc(C(F)(F)F)cc1-c1ccc2[nH]c(-c3ccccc3Cl)cc2c1 [Example 59, 2-(2-Chloro-phenyl)-5-(2-methyl-5-trifluoromethyl-2H-pyrazol-3-yl)-1H-indole]
140 | Cc1ccccc1-c1cc2cc(-c3cc(C(F)(F)F)nn3C)ccc2[nH]1 [Example 60, 5-(2-Methyl-5-trifluoromethyl-2H-pyrazol-3-yl)-2-o-tolyl-1H-indole]
848 | Cn1nc(C2CC2)cc1-c1ccc2[nH]c(-c3ccccc3Cl)cc2c1 [Example 61, 2-(2-Chloro-phenyl)-5-(5-cyclopropyl-2-methyl-2H-pyrazol-3-yl)-1H-indole]
964 | Cc1ccccc1-c1cc2cc(-c3cc(C4CC4)nn3C)ccc2[nH]1 [Example 62, 5-(5-Cyclopropyl-2-methyl-2H-pyrazol-3-yl)-2-o-tolyl-1H-indole]
368 | Cn1nc(C2CC2)cc1-c1ccc2[nH]c(-c3c(F)cccc3F)cc2c1 [Example 63, 5-(5-Cyclopropyl-2-methyl-2H-pyrazol-3-yl)-2-(2,6-difluoro-phenyl)-1H-indole]
81 | Cc1sc(-c2cccnc2)nc1-c1ccc2[nH]c(-c3ccncc3F)cc2c1 [Example 64, 2-(3-Fluoro-pyridin-4-yl)-5-(5-methyl-2-pyridin-3-yl-thiazol-4-yl)-1H-indole]
71 | COC(=O)c1ccc(-c2cc3cc(-c4nc(-c5cccnc5)sc4C)ccc3[nH]2)c(C)c1 [Example 65, Methyl-4-[5-(5-methyl-2-pyridin-3-yl-thiazol-4-yl)-1H-indol-2-yl]-benzoic acid methyl ester]
33 | COc1cc(F)c(-c2cc3cc(-c4nc(-c5cccnc5)sc4C)ccc3[nH]2)c(F)c1 [Example 66, 2-(2,6-Difluoro-4-methoxy-phenyl)-5-(5-methyl-2-pyridin-3-yl-thiazol-4-yl)-1H-indole]
63 | Cc1sc(-c2cccnc2)nc1-c1ccc2[nH]c(-c3ccc(F)cc3Cl)cc2c1 [Example 67, 2-(2-Chloro-4-fluoro-phenyl)-5-(5-methyl-2-pyridin-3-yl-thiazol-4-yl)-1H-indole]
152 | Cc1sc(-c2cccnc2)nc1-c1ccc2[nH]c(-c3cncnc3C(C)C)cc2c1 [Example 68, 2-(4-Isopropyl-pyrimidin-5-yl)-5-(5-methyl-2-pyridin-3-yl-thiazol-4-yl)-1H-indole]
949 | Cc1sc(C(C)C)nc1-c1ccc2[nH]c(-c3ccccc3Cl)cc2c1 [Example 69, 2-(2-Chloro-phenyl)-5-(2-isopropyl-5-methyl-thiazol-4-yl)-1H-indole]
356 | Cc1sc(C(C)C)nc1-c1ccc2[nH]c(-c3c(F)cccc3F)cc2c1 [Example 70, 2-(2,6-Difluoro-phenyl)-5-(2-isopropyl-5-methyl-thiazol-4-yl)-1H-indole]
584 | Cc1sc(C2CC2)nc1-c1ccc2[nH]c(-c3ccccc3Cl)cc2c1 [Example 71]
